According to patent US20060135613A1, “Carboxamides derivatives” (Bayer Healthcare AG, priority 2002, published 2006):

Legend:
IP receptor = target: T1, IP receptor (Homo sapiens, UniProt P43119); experiment: Iloprost-induced cAMP production assay in HEL cells (Assay 2); format: cell-based; details: IP receptor antagonist assay, compounds of about 40 to 90% purity, read-out: Activity grade assay 2
T1 construct: HEL cells were collected with centrifugation and washed with cAMP assay buffer; endogenous in cells; host or cells: HEL 92.1.7 (human erythroleukemia, ATCC)
Protocol: [Iloprost-Induced cAMP Production Assay in HEL Cells] (Assay 2)
HEL cells were collected with centrifugation and washed with cAMP assay buffer (CAB: Hank's balanced salt solution, 17 mM Hepes, 0.1% bovine serum albumin, 1 mM IBMX, 0.4% DMSO, and 1 mM L-ascorbic acid sodium salt (pH 7.4)). Cells were suspended at the density of 2.5×10^5 cells/ml in CAB, and twenty thousand cells in 80 μl aliquot of cell suspension were put in a well of 96 well plate (Falcon). Then, 10 μl of compound solution diluted with 1% DMSO in CAB or buffer alone was added. The plate was incubated at 37° C. for 30 min. Then, another 10 μl containing 100 nM iloprost in CAB or buffer alone was added and further incubated at 37° C. for 30 min. cAMP content in the well was measured by a cAMP ELISA kit (Applied Biosystems).

T1 sequence (P43119 whole entry): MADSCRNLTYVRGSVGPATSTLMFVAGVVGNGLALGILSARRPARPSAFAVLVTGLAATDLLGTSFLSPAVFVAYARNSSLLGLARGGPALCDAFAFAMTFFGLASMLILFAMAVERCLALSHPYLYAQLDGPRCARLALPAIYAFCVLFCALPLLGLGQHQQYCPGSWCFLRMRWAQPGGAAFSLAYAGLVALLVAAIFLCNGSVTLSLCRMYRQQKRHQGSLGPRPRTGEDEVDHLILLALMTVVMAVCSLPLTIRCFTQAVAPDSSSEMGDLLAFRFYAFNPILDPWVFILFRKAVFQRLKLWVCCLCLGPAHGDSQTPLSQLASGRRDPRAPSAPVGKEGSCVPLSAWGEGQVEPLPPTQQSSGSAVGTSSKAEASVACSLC

Structure (SMILES) | IC50 (IP receptor) | melting point
O=C(CCc1ccc(COc2ccccc2)cc1)N[C@@H](Cc1ccccc1)C(=O)O [Example 2, N-[3-(4-Phenoxymethylphenyl)propionyl]phenylalanine] | < 100 nM | 173 to 174 °C
O=C(/C=C/c1ccc(COc2ccccc2)cc1)NC(Cc1ccccc1)C(=O)O (centres unmarked) [Example 1, N-(4-phenoxymethylcinnamoyl)phenylalanine] | < 100 nM | 205 °C
O=C(C#Cc1ccc(COc2ccccc2)cc1)N[C@@H](Cc1ccccc1)C(=O)O [Example 3, N-(4-Phenoxymethylphenylpropioloyl)phenylalanine] | < 100 nM | 146 °C
O=C(/C=C/c1ccc(OCc2ccccc2)cc1)NC(Cc1ccccc1)C(=O)O (centres unmarked) [Example 4, N-(4-Benzyloxycinnamoyl)phenylalanine] | < 100 nM | 220 °C
